Experimental data reported in patent US20230212170A1, “INHIBITORS OF KRAS G12C PROTEIN AND USES THEREOF” (SHANGHAI ANTENGENE CORPORATION LIMITED, priority 2020, published 2023).
pIC50: −log10 of the molar value. Where two headings read alike, the source gives them in different places.

Experiments:
KRAS G12C = KRAS G12C (Homo sapiens, UniProt P01116, G12C); test: KRAS GDP FI assay; assay type: biochemical; conditions: kinetic reading Ex580/Em620 for 120 min
Description: Assay 2: KRAS GDP FI Assay
1. Prepare compound dilution plate.
2. Transfer Inhibitor/DMSO to assay plate by Echo.
3. Prepare 1× assay buffer.
4. Prepare KRAS G12C mix & SOS1 mix & GTP mix & detection reagent mix.
5. Add KRAS G12C mix, SOS1 mix, GTP mix.
6. Add detection reagent mix to assay plate.

MIA PaCa-2 = test: Tumor cell anti-proliferation assay (CTG assay), MIA PaCa-2; assay type: cell-based; conditions: read-out: IC50 MIA PaCa-2
Experimental: (§1) Assay 3: Tumor Cell Anti-Proliferation Assay (CTG Assay)
(§2) Tested tumor cell lines (MIA PaCa-2, NCI-H358, and A549) were seeded to the 96-well plate for overnight, then cells were treated with the test compound at 9 serially diluted concentrations in triplicate. After 3-days incubation with the test compound, the CTG assay was performed to evaluate the IC50. The 3 cell lines were tested in the same manner. Cisplatin were used as the positive control.
(§3) Day −1: Cell Plating for Cell Lines
(§4) 1. Adjust the cell concentration to the appropriated number with the medium, and for each well of a 96-well plate, add 90 μl cell suspensions (Cell concentration will be adjusted according to the data base or density optimization assay). 2. Incubate the plates for overnight in humidified incubator at […] with 5% CO2.
(§5) Day 0: T0 Plate Reading and Compound Treatment
(§6) 3. Add 10 μL culture medium to each well of plate A for T0 reading.
(§7) 4. Equilibrate the plate and its content at RT for approximately 30 min.
(§8) 5. Add 50 μL CellTiter-Glo® Reagent to each well for T0 reading.
(§9) 6. Mix contents for 2 minutes on an orbital shaker to facilitate cell lysis.
(§10) 7. Allow the plate to incubate at room temperature for 10 minutes to stabilize the luminescent signal. Note: Uneven luminescent signal within standard plates can be caused by temperature gradients, uneven seeding of cells or edge effects in multiwall plates.
(§11) 8. Place a black BackSeal sticker to the bottom of each plate.
(§12) 9. Record luminescence using an Envision Multi Label Reader.
(§13) 10. Dilute the test compound and the positive control (Cisplatin). Add 10 μL of 10× test compound working solutions into the corresponding wells. Incubate the test plates in the humidified incubator at 37° C. with 5% Co2.
(§14) Day 3: Plate Reading for 3-Day Assay
(§15) 11. Monitor under the microscope to make sure that the cells in control wells are healthy.
(§16) 12. After three days incubation, add 50 μL CellTiter-Glo® Reagent to each well.
(§17) 13. Mix contents for 2 minutes on an orbital shaker to facilitate cell lysis.
(§18) 14. Allow the plate to incubate at room temperature for 10 minutes to stabilize the luminescent signal.
(§19) 15. Note: Uneven luminescent signal within standard plates can be caused by temperature gradients, uneven seeding of cells or edge effects in multiwall plates.
(§20) 16. Place a black BackSeal sticker to the bottom of each plate.
(§21) 17. Record luminescence using an Envision Multi Label Reader.
(§22) In order to calculate IC50, a dose-response curve was fitted using nonlinear regression model with a sigmoidal dose response. The formula of the surviving rate is shown below, and the IC50 was automatically produced by GraphPad Prism 5.0.
(§23) The surviving rate […]=(LumTest compound−LumMedium control)/(LumNone treated-LumMedium control)×100%.
(§24) LumNone treated-LumMedium control is set as 100% o and LumMedium control is set as […]. T0 value will be presented as percentage of LumNone treated.

NCI-H358 = test: Tumor cell anti-proliferation assay (CTG assay), NCI-H358; assay type: cell-based; conditions: read-out: IC50 NCI-H358
Experimental: as §1, §2, §3, §4, §5, §6, §7, §8, §9, §10, §11, §12, §13, §14, §15, §16, §17, §18, §19, §20, §21, §22, §23, §24

[1] = Homo sapiens, MIA PaCa-2, 72 h, MIA PaCa-2, 3-days incubation, CTG
[2] = MIA PaCa-2, 3-days incubation, CTG
[3] = NCI-H358, 3-days incubation, CTG

Compound | pIC50 (KRAS G12C) | pIC50 (MIA PaCa-2; [1]) | other results
C=CC(=O)N1CCN(c2nc(OC[C@@H]3CCCN3C)nc3c(=O)n(-c4cccc5cccc(Cl)c45)c(C)nc23)[C@@H](C)C1 (single isomer, unassigned) [Compound 26-b] | 5.82 |  | pIC50 (MIA PaCa-2; [2]): 5.54
C=CC(=O)N1CCN(c2nc(OC[C@@H]3CCCN3C)nc3c(=O)n(-c4cccc5cccc(Cl)c45)c(C)nc23)[C@@H](C)C1 (single isomer, unassigned) [Compound 26-a] |  | 5.36 | 
C=CC(=O)N1CCN(c2nc(OC[C@@H]3CCCN3C)nc3c(=O)n(-c4cccc5cccc(Cl)c45)c(C(F)(F)F)nc23)[C@@H](C)C1 [Compound 24, 8-((S)-4-acryloyl-2-methylpiperazin-1-yl)-3-(8-chloronaphthalen-1-yl)-6-(((S)-1-methylpyrrolidin-2-yl)methoxy)-2-(trifluoromethyl)pyrimido[5,4-d] pyrimidin-4(3H)-one] | 6.88 | 6.32 | 
2-((S)-1-acryloyl-4-(7-(8-chloronaphthalen-1-yl)-2-(((2S,4R)-4-fluoro-1-methylpyrrolidin-2-yl) [Compound 25-a] |  |  | pIC50 (MIA PaCa-2; [2]): < 8.00
2-((S)-1-acryloyl-4-(7-(8-chloronaphthalen-1-yl)-2-(((2S,4R)-4-fluoro-1-methylpyrrolidin-2-yl) [Compound 25-b] | 7.43 |  | pIC50 (MIA PaCa-2; [2]): 5.95
C=CC(=O)N1C[C@H](C)N(c2nc(OC[C@@H]3CCCN3C)nc3c(=O)n(-c4cn(C)c5ccccc45)c(C(F)(F)F)nc23)[C@@H](C)C1 [Example 43] |  |  | pIC50 (MIA PaCa-2; Homo sapiens, MIA PaCa-2, 72 h): 6.12; pIC50 (NCI-H358; Homo sapiens, NCI-H358, 72 h): 6.59
C=CC(=O)N1CCN(c2nc(OC[C@@H]3CCCN3C)nc3c(=O)n(-c4cccc5cccc(Cl)c45)c(CC)nc23)[C@@H](C)C1 (single isomer, unassigned) [Compound 27-a] |  | 5.54 | 
C=CC(=O)N1CCN(c2nc(OC[C@@H]3CCCN3C)nc3c(=O)n(-c4cccc5cccc(Cl)c45)c(C(F)(F)F)nc23)[C@@H](C)C1 (single isomer, unassigned) [Compound 24-a] |  |  | pIC50 (NCI-H358; [3]): 6.39
C=CC(=O)N1CCN(c2nc(OC[C@@H]3CCCN3C)nc3c(=O)n(-c4cccc5cccc(Cl)c45)c(CC)nc23)[C@@H](C)C1 (single isomer, unassigned) [Compound 27-b] | 6.05 |  | pIC50 (MIA PaCa-2; [2]): 5.57
C=CC(=O)N1CCN(c2nc(OC[C@@H]3CCCN3C)nc3c(=O)n(-c4cccc5cccc(Cl)c45)c(C(F)(F)F)nc23)[C@@H](C)C1 (single isomer, unassigned) [Compound 24-b] |  |  | pIC50 (NCI-H358; [3]): 5.84

Now from value to compound, other results behind:

pIC50 (KRAS G12C) | pIC50 (MIA PaCa-2; [1]) | Compound | other results
6.72 | 5.82 | C=CC(=O)N1C[C@H](C)N(c2nc(OC[C@@H]3CCCN3C)nc3c(=O)n(-c4cccc5cccc(Cl)c45)c(C)nc23)[C@@H](C)C1 [Compound 28, 8-((2S,6S)-4-acryloyl-2,6-dimethylpiperazin-1-yl)-3-(8-chloronaphthalen-1-yl)-2-methyl-6-(((S)-1-methylpyrrolidin-2-yl)methoxy)pyrimido[5,4-d]pyrimidin-4(3H)-one] | 
6.75 |  | C=CC(=O)N1CCN(c2nc(OC[C@@H]3CCCN3C)nc3c(=O)n(-c4cccc5cccc(F)c45)c(C(F)(F)F)nc23)C[C@@H]1CC#N [Example 37, 2-((S)-1-acryloyl-4-(7-(8-fluoronaphthalen-1-yl)-2-(((S)-1-methylpyrrolidin-2-yl)methoxy)-8-oxo-6-(trifluoromethyl)-7,8-dihydropyrimido[5,4-d]pyrimidin-4-yl)piperazin-2-yl) acetonitrile] | 
6.81 |  | C=CC(=O)N1CCN(c2nc(OC[C@@H]3C[C@@H](F)CN3C)nc3c(=O)n(-c4cccc5cccc(Cl)c45)c(C(F)(F)F)nc23)[C@@H](C)C1 (single isomer, unassigned) [Example 36-a] | 
6.39 |  | C=CC(=O)N1CCN(c2nc(OC[C@@H]3CCCN3C)nc3c(=O)n(-c4ccccc4F)c(C(F)(F)F)nc23)[C@@H](C)C1 (single isomer, unassigned) [Example 40-b] | 
7.08 |  | C=CC(=O)N1CCN(c2nc(OC[C@@H]3CCCN3C)nc3c(=O)n(-c4cccc5cccc(Cl)c45)c(C(F)(F)F)nc23)C[C@@H]1CC#N (single isomer, unassigned) [Example 32-b] | pIC50 (MIA PaCa-2; [2]): 6.73
6.91 | 7.14 | C=CC(=O)N1CCN(c2nc(OC[C@@H]3CCCN3C)nc3c2CCCC(c2c(C)ccc4[nH]ncc24)C3)C[C@@H]1CC#N (stereo partly drawn) [Example 30, 2-((2S)-1-acryloyl-4-(8-(5-methyl-1H-indazol-4-yl)-2-(((S)-1-methylpyrrolidin-2-yl)methoxy)-6,7,8,9-tetrahydro-5H-cyclohepta[d]pyrimidin-4-yl)piperazin-2-yl)acetonitrile] | 
6.44 |  | C=CC(=O)N1CCN(c2nc(OC[C@@H]3CCCN3C)nc3c(=O)n(-c4cccc5cccc(C)c45)c(-c4ccccc4)nc23)C[C@@H]1CC#N [Example 39, 2-((S)-1-acryloyl-4-(7-(8-methylnaphthalen-1-yl)-2-(((S)-1-methylpyrrolidin-2-yl)methoxy)-8-oxo-6-phenyl-7,8-dihydropyrimido[5,4-d]pyrimidin-4-yl)piperazin-2-yl)acetonitrile] | 
 | 5.43 | C=CC(=O)N1CCN(c2nc(OC[C@@H]3CCCN3C)nc3c(=O)n(-c4cccc5cccc(Cl)c45)c(C(F)(F)F)nc23)C[C@@H]1CC#N (single isomer, unassigned) [Example 32-a] | 
7.05 |  | C=CC(=O)N1C[C@H](C)N(c2nc(OC[C@@H]3CCCN3C)nc3c(=O)n(-c4cccc5cccc(Cl)c45)c(C(F)(F)F)nc23)[C@@H](C)C1 (single isomer, unassigned) [Example 29-a] | pIC50 (NCI-H358; [3]): 6.83
6.31 |  | C=CC(=O)N1CCN(c2nc(OC[C@@H]3CCCN3C)nc3c(=O)n(-c4c(F)cccc4OC)c(C(F)(F)F)nc23)C[C@@H]1CC#N [Example 38, 2-((S)-1-acryloyl-4-(7-(2-fluoro-6-methoxyphenyl)-2-(((S)-1-methylpyrrolidin-2-yl)methoxy)-8-oxo-6-(trifluoromethyl)-7,8-dihydropyrimido[5,4-d]pyrimidin-4-yl)piperazin-2-yl)acetonitrile] | 
